Assay results: patent US10537579B2, “Rejection reaction suppressant” (JUNTENDO EDUCATIONAL FOUNDATION, priority 2017, dated 2020)

Key:
Format in all cases: in vivo
[1] = system: transplanted human cornea; test: Effects on transplanted human cornea (case, angiogenesis in corneal graft); settings: after 3 weeks of ocular instillation
Experimental: Corneal transplantation was performed in a case of corneal perforation resulting from corneal herpes (person), and as a result, severe hyperemia was observed one month after surgery, and vascularization was observed also in a corneal graft. Peripheral anterior synechia was observed, and secondary glaucoma was observed, and therefore GLANATEC ophthalmic solution 0.4% was prescribed.

[2] = system: CD31, VEGF-A and Lyve-1 in transplanted mouse corneas; test: Mouse corneal transplant model: expression levels in the corneas by real-time PCR on day 56; settings: Group R3: three times daily, vs Group P, p<0.001
Experimental: (§1) Mouse corneal transplant models were prepared in accordance with a method described in a document (J Biol Methods 2015 2(3); e 27, hereinafter referred to as Document A) and used in an experiment. More specifically, allograft corneal transplantation was performed between 6 to 8-week-old donor male C57BL/6 mice and 6 to 8-week-old host male Balb/c mice.
(§2) The mice that had received corneal transplantation were divided into three groups (5 mice per group): ocular instillation of PBS twice daily (Group P: control group); ocular instillation of ripasudil twice daily (Group R2); and ocular instillation of ripasudil three times daily (Group R3).
(§3) The amount of PBS or ripasudil instilled into one eye per administration was 0.1 μL, and GLANATEC ophthalmic solution 0.4% was used as ripasudil.
(§4) After transplantation, the ocular instillation was performed every day until day 56, during which the angiogenesis score and opacity score (each of which was determined by a method described in. Document A) and the survival time of corneal grafts were evaluated with a slit lamp microscope every 7 days. On day 56 that was the final day of the experiment, in addition to the above evaluations, the expression levels of vascular endothelial cells (CD31), vascular endothelial cell growth factor (VEGF-A), and lymph vessels (Lyve-1) in the corneas were measured by real-time-PCR.

[3] = system: mouse cervical lymph node cells; test: Mouse corneal transplant model: cervical lymph node cells by flow cytometry (FACS) on day 14; settings: day 14 after transplantation
Experimental: (§5) Mouse corneal transplant models were prepared (surgery), divided into groups (Group P, Group R2, and Group R3), and treated (ocular instillation) in the same manner as in Example 1. On day 14 after transplantation, cervical lymph node cells were collected, and CD4^+ T cells, the expression levels of inflammatory cytokines IFNγ and IL-17, CD4^+CD25^+Foxp3^+ regulatory T cells (Tregs) involved in immune tolerance, […], and the expression level of Foxp3 (Mean Fluorescein Intensity, MFI) were measured by flow cytometry (FACS). Further, on day 14 after transplantation, the expression levels of foxp3, IL-10, and TGFβ1 in the corneas were also measured by a real-time PCR (qPCR).

[4] = system: foxp3, IL-10 and TGFβ1 in transplanted mouse corneas; test: Mouse corneal transplant model: expression levels in the corneas by real-time PCR (qPCR) on day 14; settings: day 14 after corneal transplantation
Experimental: as §5

[5] = system: transplanted mouse corneas; test: Mouse corneal transplant model: angiogenesis score, opacity score and graft survival by slit lamp microscope; settings: Group R3: ocular instillation three times daily
Experimental: as §1, §2, §3, §4

[6] = until day 56, vs Group P (PBS), p<0.05

SMILES: C[C@H]1CNCCCN1S(=O)(=O)c1cccc2cncc(F)c12.Cl.O.O [ripasudil, 4-fluoro-5-{[(2S)-2-methyl-1,4-diazepan-1-yl]sulfonyl}isoquinoline monohydrochloride dihydrate]
- numerical analysis of new blood vessels with Image J (FIG. 10) [1]: effect of suppressing angiogenesis
- CD31 expression level in the corneas [2]: significantly lower
- Lyve-1 expression level in the corneas [2]: significantly lower
- VEGF-A expression level in the corneas [2]: significantly lower
- Foxp3 expression level (MFI) in cervical lymph node cells ([3]; Group R2: twice daily): significantly increased
- CD4+CD25+Foxp3+ regulatory T cells (Tregs) in cervical lymph node cells ([3]; Group R3: three times daily): significantly increased
- CD4+CD25+Foxp3− regulatory T cells (exTregs) in cervical lymph node cells ([3]; Group R3: three times daily): significantly reduced
- Foxp3 expression level (MFI) in cervical lymph node cells ([3]; Group R3: three times daily): significantly increased
- inflammatory cytokine IFN-γ in cervical lymph node cells ([3]; Group R3: three times daily): significant reduction
- expression of foxp3 in the corneas ([4]; Group R2: twice daily): significantly increased
- expression of IL-10 in the corneas ([4]; Group R3: three times daily): significantly increased
- expression of TGFβ1 in the corneas ([4]; Group R3: three times daily): significantly increased
- expression of foxp3 in the corneas ([4]; Group R3: three times daily): significantly increased
- transparency of transplanted cornea (photographs, FIG. 1) [5]: maintained until day 56
- angiogenesis score [5, 6]: significantly lower
- opacity score [5, 6]: significantly lower
- survival time of corneal grafts [5, 6]: significantly prolonged
